Source: ChEMBL document CHEMBL4680134, “Structural optimization of natural product nordihydroguaretic acid to discover novel analogues as AcrB inhibitors” (Eur J Med Chem, 2020)

Key:
[1] = target: T1, Multidrug efflux pump subunit AcrB (Escherichia coli (strain K12)) (UniProt P31224); experiment: Inhibition of AcrB in Escherichia coli BW25113 assessed as potentiation of tetraphenylphosphonium induced antibacterial activity by measuring tetraphenylphosphonium MIC at 128 ug/ml measured after 18 hrs by checkerboard titration method (reference value: 1024 ug/ml); details: dose 128.0 µg/ml
T1 sequence (whole entry): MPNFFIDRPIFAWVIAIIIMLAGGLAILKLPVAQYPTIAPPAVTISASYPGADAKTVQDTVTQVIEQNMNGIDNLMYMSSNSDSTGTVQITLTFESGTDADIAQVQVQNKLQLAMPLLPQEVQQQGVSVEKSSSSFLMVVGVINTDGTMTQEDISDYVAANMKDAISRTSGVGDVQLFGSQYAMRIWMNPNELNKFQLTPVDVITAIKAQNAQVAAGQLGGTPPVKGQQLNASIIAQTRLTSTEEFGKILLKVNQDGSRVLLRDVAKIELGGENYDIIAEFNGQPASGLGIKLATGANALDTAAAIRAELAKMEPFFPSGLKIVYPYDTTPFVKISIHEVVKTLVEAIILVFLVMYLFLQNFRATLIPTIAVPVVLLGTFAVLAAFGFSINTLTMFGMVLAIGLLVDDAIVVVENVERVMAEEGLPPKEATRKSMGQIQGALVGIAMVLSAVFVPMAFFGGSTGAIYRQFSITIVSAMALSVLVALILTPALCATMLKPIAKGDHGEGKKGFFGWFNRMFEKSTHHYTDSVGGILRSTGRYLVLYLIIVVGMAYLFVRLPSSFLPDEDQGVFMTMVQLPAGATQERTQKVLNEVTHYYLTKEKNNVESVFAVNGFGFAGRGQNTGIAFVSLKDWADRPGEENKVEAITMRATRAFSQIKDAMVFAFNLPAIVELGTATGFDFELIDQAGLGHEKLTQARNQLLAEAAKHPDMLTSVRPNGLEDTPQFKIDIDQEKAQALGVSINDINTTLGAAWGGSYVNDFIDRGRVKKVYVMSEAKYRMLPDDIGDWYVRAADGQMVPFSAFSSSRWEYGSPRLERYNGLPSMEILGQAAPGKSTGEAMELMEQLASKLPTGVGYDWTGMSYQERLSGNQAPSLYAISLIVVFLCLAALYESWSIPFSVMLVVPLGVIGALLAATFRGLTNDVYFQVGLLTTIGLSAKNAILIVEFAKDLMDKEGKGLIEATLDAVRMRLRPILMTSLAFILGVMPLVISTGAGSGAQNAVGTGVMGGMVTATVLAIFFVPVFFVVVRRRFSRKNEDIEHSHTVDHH

[2] = target: T1, Multidrug efflux pump subunit AcrB (Escherichia coli (strain K12)); experiment: Inhibition of AcrB in Escherichia coli BW25113 assessed as potentiation of tetraphenylphosphonium induced antibacterial activity by measuring tetraphenylphosphonium MIC at 256 ug/ml measured after 18 hrs by checkerboard titration method (reference value: 1024 ug/ml); details: dose 256.0 µg/ml
[3] = target: T1, Multidrug efflux pump subunit AcrB (Escherichia coli (strain K12)); experiment: Inhibition of AcrB in Escherichia coli BW25113 assessed as potentiation of erythromycin induced antibacterial activity by measuring erythromycin MIC at 256 ug/ml measured after 18 hrs by checkerboard titration method (reference value: 64 ug/ml); details: dose 256.0 µg/ml
[4] = target: T1, Multidrug efflux pump subunit AcrB (Escherichia coli (strain K12)); experiment: Inhibition of AcrB in Escherichia coli BW25113 assessed as potentiation of rifampicin induced antibacterial activity by measuring rifampicin MIC at 16 ug/ml measured after 18 hrs by checkerboard titration method (reference value: 16 ug/ml); details: dose 16.0 µg/ml
[5] = target: T1, Multidrug efflux pump subunit AcrB (Escherichia coli (strain K12)); experiment: Inhibition of AcrB in Escherichia coli BW25113 assessed as potentiation of rifampicin induced antibacterial activity by measuring rifampicin MIC at 128 ug/ml measured after 18 hrs by checkerboard titration method (reference value: 16 ug/ml); details: dose 128.0 µg/ml
[6] = target: T1, Multidrug efflux pump subunit AcrB (Escherichia coli (strain K12)); experiment: Inhibition of AcrB in Escherichia coli BW25113 assessed as potentiation of rifampicin induced antibacterial activity by measuring rifampicin MIC at 32 ug/ml measured after 18 hrs by checkerboard titration method (reference value: 16 ug/ml); details: dose 32.0 µg/ml
[7] = target: T1, Multidrug efflux pump subunit AcrB (Escherichia coli (strain K12)); experiment: Inhibition of AcrB in Escherichia coli BW25113 assessed as potentiation of tetraphenylphosphonium induced antibacterial activity by measuring tetraphenylphosphonium MIC at 64 ug/ml measured after 18 hrs by checkerboard titration method (reference value: 1024 ug/ml); details: dose 64.0 µg/ml
[8] = target: T1, Multidrug efflux pump subunit AcrB (Escherichia coli (strain K12)); experiment: Inhibition of AcrB in Escherichia coli BW25113 assessed as potentiation of chloramphenicol induced antibacterial activity by measuring chloramphenicol MIC at 256 ug/ml measured after 18 hrs by checkerboard titration method (reference value: 8 ug/ml); details: dose 256.0 µg/ml
[9] = target: T1, Multidrug efflux pump subunit AcrB (Escherichia coli (strain K12)); experiment: Inhibition of AcrB in Escherichia coli BW25113 assessed as potentiation of erythromycin induced antibacterial activity by measuring erythromycin MIC at 64 ug/ml measured after 18 hrs by checkerboard titration method (reference value: 64 ug/ml); details: dose 64.0 µg/ml
[10] = target: T1, Multidrug efflux pump subunit AcrB (Escherichia coli (strain K12)); experiment: Inhibition of AcrB in Escherichia coli BW25113 assessed as potentiation of levofloxacin induced antibacterial activity by measuring levofloxacin MIC at 16 ug/ml measured after 18 hrs by checkerboard titration method (reference value: 0.06 ug/ml); details: dose 16.0 µg/ml
[11] = target: T1, Multidrug efflux pump subunit AcrB (Escherichia coli (strain K12)); experiment: Inhibition of AcrB in Escherichia coli BW25113 assessed as potentiation of erythromycin induced antibacterial activity by measuring erythromycin MIC at 8 ug/ml measured after 18 hrs by checkerboard titration method (reference value: 64 ug/ml); details: dose 8.0 µg/ml
[12] = target: T1, Multidrug efflux pump subunit AcrB (Escherichia coli (strain K12)); experiment: Inhibition of AcrB in Escherichia coli BW25113 assessed as potentiation of tetraphenylphosphonium induced antibacterial activity by measuring tetraphenylphosphonium MIC at 8 ug/ml measured after 18 hrs by checkerboard titration method (reference value: 1024 ug/ml); details: dose 8.0 µg/ml
[13] = target: T1, Multidrug efflux pump subunit AcrB (Escherichia coli (strain K12)); experiment: Inhibition of AcrB in Escherichia coli BW25113 assessed as potentiation of chloramphenicol induced antibacterial activity by measuring chloramphenicol MIC at 8 ug/ml measured after 18 hrs by checkerboard titration method (reference value: 8 ug/ml); details: dose 8.0 µg/ml
[14] = target: T1, Multidrug efflux pump subunit AcrB (Escherichia coli (strain K12)); experiment: Inhibition of AcrB in Escherichia coli BW25113 assessed as potentiation of levofloxacin induced antibacterial activity by measuring levofloxacin MIC at 8 ug/ml measured after 18 hrs by checkerboard titration method (reference value: 0.06 ug/ml); details: dose 8.0 µg/ml
[15] = target: T1, Multidrug efflux pump subunit AcrB (Escherichia coli (strain K12)); experiment: Inhibition of AcrB in Escherichia coli BW25113 assessed as potentiation of rifampicin induced antibacterial activity by measuring rifampicin MIC at 8 ug/ml measured after 18 hrs by checkerboard titration method (reference value: 16 ug/ml); details: dose 8.0 µg/ml

SMILES | MIC [1] [µg/mL] | MIC [2] [µg/mL] | MIC [3] [µg/mL] | MIC [4] [µg/mL] | MIC [5] [µg/mL] | MIC [6] [µg/mL] | MIC [7] [µg/mL] | MIC [8] [µg/mL] | MIC [9] [µg/mL] | MIC [10] [µg/mL] | MIC [11] [µg/mL] | MIC [12] [µg/mL] | MIC [13] [µg/mL] | MIC [14] [µg/mL] | MIC [15] [µg/mL]
Oc1ccc(CCCc2ccc(O)c(O)c2)cc1O | 512 | 512 | 32 | 16 | 16 | 16 | 512 | 8 | 32 | 0.06 |  |  |  |  | 
O=C(NCCc1ccc(O)c(O)c1)c1cc(O)c(O)c(O)c1 | 256 |  |  | 16 | 16 | 16 | 512 |  | 16 | 0.06 | 32 | 1020 | 4 | 0.06 | 16
O=C(NCCc1ccc(O)c(O)c1)c1ccc(C(F)(F)F)cc1 | 1020 |  |  | 16 | 16 | 16 | 1020 |  | 64 | 0.06 | 64 | 1020 | 8 | 0.06 | 16
O=C(NCCc1ccc(O)c(O)c1)c1ccc(Br)cc1 | 1020 |  |  | 16 | 16 | 16 | 1020 |  | 64 | 0.06 | 64 | 1020 | 8 | 0.06 | 16
Nc1ccccc1C(=O)NCCc1ccc(O)c(O)c1 | 512 |  |  | 16 | 16 | 16 | 1020 |  | 64 | 0.06 | 64 | 1020 | 8 | 0.06 | 16
